Experimental findings from patent US20100168228A1, “NOVEL CHEMOTHERAPEUTIC AGENTS AGAINST INFLAMMATION AND CANCER” (RELIANCE LIFE SCIENCES PVT. LTD., priority 2006, published 2010) are described below.

Series [1] concerns RAW 264.7 cells. Kind of series: Nitrite quantification (Griess) in LPS stimulated macrophages. The series is classed as cell-based, mouse. As to conditions: for CONCENTRATION OF NITRITE μM ± SD: RAW 264.7 + LPS (200 ng/ml) + 10 μM compound, 24 h, LPS + DMSO control 14.560, basal 0.782. The procedure: NO2^− accumulation was used as an indicator of Nitric Oxide (NO) production in the medium as described previously (Green et al., 1982 Anal Biochem 126, 131-138). […] The isolated supernatants were mixed with an equal volume of Griess reagent (1% sulfanilamide, 0.1% naphthylenediamine dihydrochloride, and 2% phosphoric acid) and incubated at room temperature for 15 min. NaNO2 was used to generate a standard curve, and nitrite production was determined by measuring the optical density at 540 nm.
To estimate the anti-inflammatory effects of all the synthetic molecules listed in this study, we measured the accumulation of nitrite, the stable metabolite of NO, in the culture media using Griess reagent.
To investigate the effect of CAMVE on NO production, we measured the accumulation of nitrite, the stable metabolite of NO, in the culture media using Griess reagent. To investigate the effect of CAMVE on NO production, Raw 264.7 cells, pretreated with indicated concentrations of CAMVE for 1 h were incubated with LPS (250 ng/ml) for 24 h.
(In general: The Griess reaction detects nitrite, a stable product of nitric oxide.)

The subject of series [2] is Jurkat cells. Briefly: Cytotoxicity assay (MTT), Jurkat. The series is classed as cell-based, human. As to the method:
FIG. 8: CAMVE potentiates apoptosis induced by TNF or chemotherapeutic agents. A1. Jurkat cells were incubated at 37° C. with TNF, in the presence and absence of 10 μM of CAMVE for 72 h and the viable cells were assayed using MTT reagent. The results are shown as the mean±S.D. from triplicate culture. A2. Jurkat cells (1×10^6 cells/ml) were pretreated with CAMVE for 3 h as indicated and incubated with TNF for 24 hrs, and PARP cleavage was determined by FACS analysis as described in the “Materials and Methods”. M2 gated population represents the percentage apoptotic population B. SA-LPS/Jkt cells pretreated with 10 μM of CAMVE for 3 h, were treated with 1 μM of cis-plastin, doxorubicin, taxol or vincristine for 72 h. The cytotoxicity was then assayed by MTT method. Results are shown as the mean±S.D. from triplicate samples.
FIG. 11: Dose response for compound 27 induced loss of cell viability and cell proliferation in Jurkat cell line. […] Error bars indicate±S.D.
Cytotoxicity was assayed by the modified tetrazolium salt 3-(4,5-dimethylthiazol-2-yl)-2,5-diphenyltetrazolium bromide (MTT) assay as described by Plumb, J A et al. (Cancer Res. 1989 Aug. 15; 49(16):4435-4440). […]

In series [3] the test system is Jurkat cells. Briefly: PARP cleavage assay using flow cytometry, Jurkat. The series is classed as cell-based, human. As to the method:
FIG. 8: CAMVE potentiates apoptosis induced by TNF or chemotherapeutic agents. A1. Jurkat cells were incubated at 37° C. with TNF, in the presence and absence of 10 μM of CAMVE for 72 h and the viable cells were assayed using MTT reagent. The results are shown as the mean±S.D. from triplicate culture. A2. Jurkat cells (1×10^6 cells/ml) were pretreated with CAMVE for 3 h as indicated and incubated with TNF for 24 hrs, and PARP cleavage was determined by FACS analysis as described in the “Materials and Methods”. […]
FIG. 15: Induction of apoptosis and PARP cleavage by compound 27. Jurkat cells were treated with 100 and 500 nM of the compound for indicated time period and PARP cleavage was determined using FACS analysis as described in the “Materials and Methods”. […]
Extent of PARP cleavage is determined using polyclonal antibody specifically recognizing the 85 kDa fragment of cleaved PARP (NSB 699 Novus Biologicals) and can be used as a marker for detecting apoptotic cells. […] Cells were washed twice with wash buffer (PBS+1% heat inactivated FBS) and analysed using FACS.
PARP Cleavage Assay using Flow Cytometry: Extent of PARP cleavage is determined using polyclonal antibody specifically recognizing the 85 kDa fragment of cleaved PARP (NSB 699 Novus Biologicals) and can be used as a marker for detecting apoptotic cells. […]

Series [4] has as its system TNFα. Briefly: Bioassay of TNFα production by LPS activated RAW 264.7 macrophages using L929 cell line. The series is classed as cell-based. The settings on record: Mus musculus; L929 + ActD + supernatant from LPS + compound (10 μM) treated RAW 264.7 macrophage; crystal violet; mean ± S.D. of triplicate; read-out: PERCENTAGE CELL SURVIVAL ± S.D. The procedure: Measurement of TNFα in culture medium or supernatant is performed using immunoassay and bioassay. Bioassay was used for the measurement of bioactive TNFα production in the culture medium.
TNFα secretion into the medium by LPS activated macrophage was assayed using L929 tumorigenic murine cells (ATCC) specifically sensitive to TNFα. L929 cell cytotoxicity assay was performed by a modified method (Sano et al., The Journal of Immunology, 1999, 163: 387-395 The Journal of Immunology, 1999, 163: 387-395) based on that described elsewhere (Flick D A, Gifford G E. J Immunol Methods. 1984 Mar. 30; 68(1-2): 167-175). Briefly, the L929 cells (log phase cells) were seeded into a flat bottom 96 well plates (6×10^4/well) in 100 μl volume of RPMI 1640 containing 2% FCS and incubated overnight at 37° C. in a 5% CO2 incubator. A working dilution of the culture supernatant collected from LPS (200 ng/ml) activated macrophage in a volume of 100 μl per well was first tested to obtain 70-75% cytotoxicity equivalent to […] of recombinant TNFα standard to the TNFα sensitive L929 cell line. After incubation of the L929 cells appropriate fixed dilution of the culture supernatant collected from the compound treated (10 μM) wells, containing the LPS stimulated macrophages in a volume of 100 μl with 2 μg/ml Actinomycin D (Act D) was taken and added to the L929 cells and the cells were incubated at room temperature for 15 min followed by 18 h incubation at 37° C. overnight with 5% CO2. On the next day the medium was removed and the cells were stained with 0.2% (w/v) crystal violet for 10 minutes. The wells were gently rinsed with water, and 33% acetic acid (100 μl/well) was added to extract the retained crystal violet. The absorbance at 570 nm was finally measured.
Tumor necrosis factor-α can cause direct cytotoxicity to the lung fibroblast cell line (L929). Bioassay of TNF α is designated on the basis of this cytotoxicity of TNF α, which can be used for the identification of murine TNF α activity in tissue culture supernatants. Culture supernatant collected from the synthetic molecules treated well containing LPS stimulated macrophage modulated the extent of cytotoxicity to the L929 cells (see Table 1).

Consider `COc1cc([C@@H]2Oc3c(OC)cc(/C=C/C(=O)O)cc3[C@H]2C(=O)O)ccc1O` [compound 27, 5-[(E)-2-carboxyvinyl]-2β-(4-hydroxy-3-methoxyphenyl)-7-methoxy-2,3-dihydro-1-benzofuran-3α-carboxylic acid], for which, in series [1], the “CONCENTRATION OF NITRITE μM ± SD” value came out at 5.027 ± 0.200 µM. For the same compound, the GI50 in series [2] (Homo sapiens, Jurkat, MTT, 24 h and 48 h, read-out: GI50 (concentration causing 50% growth inhibition)) was roughly 0.1 µM. Also, the PARP cleavage entry in series [3] (100 nM and 500 nM, increasing with time) is “significant PARP cleavage was achieved at 100 nM and 500 nM”. Further, in series [4], the viability at 10 µM was 46.5 ± 1.02%.

Turning to `COC(=O)c1ccc(OC(=O)/C=C/c2ccc(O)c(O)c2)c(OC)c1` [compound 1, Methyl 4-{[(2E)-3-(3,4-dihydroxyphenyl)prop-2-enoyl]oxy}-3-methoxybenzoate], the “CONCENTRATION OF NITRITE μM ± SD” value in series [1] was 1.849 ± 0.214 µM. Also, the “LPS induced nitrite production” value in series [1] (Raw 264.7 pretreated 1 h, LPS 250 ng/ml 24 h) is recorded as “inhibited by CAMVE treatment in a dose-dependent manner”. Besides, the “cytotoxicity induced by chemotherapeutic agents (MTT)” value in series [2] (SA-LPS (100 ng/ml) activated Jurkat, 10 μM CAMVE 3 h, then 1 μM cis-platin, doxorubicin, taxol or vincristine 72 h) was “significantly enhanced by CAMVE pretreatment”. For the same compound, the “TNF induced PARP cleavage (apoptosis)” value in series [3] (pretreated 3 h, TNF 24 h) is “significant potentiation of PARP cleavage in a dose dependent manner”. Also, the viability at 10 µM in series [4] was found to be 73.2 ± 1.77%.
